{"source": "patent US8362012B2", "about": "“Benzoxazine benzimidazole derivative, a pharmaceutical composition comprising the same, and a use thereof” (Daewoong Pharmaceutical Co., Ltd., priority 2008, dated 2013)", "data": [{"biological_target": "T1, human vanilloid-1 (hVR-1) in hVR-1-HEK293 cell line (Homo sapiens, UniProt Q8NER1)", "T1 construct": "expressed in transfected cells; host or cells: HEK293 Tet-on strain, doxycycline-induced", "T1 sequence (Q8NER1 whole entry)": "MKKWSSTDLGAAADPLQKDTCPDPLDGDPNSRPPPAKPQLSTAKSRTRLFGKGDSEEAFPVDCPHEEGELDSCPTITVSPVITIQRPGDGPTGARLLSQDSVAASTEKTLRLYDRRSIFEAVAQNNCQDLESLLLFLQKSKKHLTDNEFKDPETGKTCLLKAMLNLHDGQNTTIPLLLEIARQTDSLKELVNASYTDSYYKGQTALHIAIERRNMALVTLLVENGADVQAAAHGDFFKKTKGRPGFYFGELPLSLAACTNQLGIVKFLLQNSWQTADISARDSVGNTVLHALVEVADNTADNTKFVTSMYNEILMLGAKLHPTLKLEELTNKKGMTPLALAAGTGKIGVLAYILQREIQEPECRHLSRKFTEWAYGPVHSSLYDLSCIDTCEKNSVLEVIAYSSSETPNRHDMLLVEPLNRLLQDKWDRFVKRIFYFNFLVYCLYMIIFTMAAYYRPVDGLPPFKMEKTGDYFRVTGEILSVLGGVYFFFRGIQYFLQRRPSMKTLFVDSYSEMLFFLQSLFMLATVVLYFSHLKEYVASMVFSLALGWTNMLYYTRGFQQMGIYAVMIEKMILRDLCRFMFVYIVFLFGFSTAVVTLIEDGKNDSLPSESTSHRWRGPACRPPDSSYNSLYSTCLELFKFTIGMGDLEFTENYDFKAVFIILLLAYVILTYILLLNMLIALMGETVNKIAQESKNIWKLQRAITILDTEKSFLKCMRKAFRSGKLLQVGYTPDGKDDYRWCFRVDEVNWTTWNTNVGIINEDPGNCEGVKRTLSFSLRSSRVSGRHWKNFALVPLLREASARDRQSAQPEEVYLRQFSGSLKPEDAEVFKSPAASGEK", "assay": "Inhibitory effect on calcium influx via a vanilloid receptor (capsaicin-stimulated, Fluo-3/AM)", "format": "cell-based", "conditions": "hVR-1-HEK293 cells, 1 μM of capsaicin, compounds 0.015˜2000 nM; read-out: I.A. (inhibitory activity), IC50 on intracellular calcium influx", "experimental": "The cell line can modulate the expression of VR-1, depending on whether doxycycline, a derivative of tetracycline, is present or not. […] Specifically, hVR-1-HEK293 cells were cultured in a T75 flask to about 80% confluency, separated from the flask by treating with trypsin solution, and then collected by centrifugation. The cells were suspended in a medium containing 1 μg/mL of doxycycline, and the resulting suspension was diluted to a concentration of 2˜4×10^5 cells/mL […], of the cell suspension was placed in each well of a 96-well black plate. The cells were cultured in 5% CO2 incubator at 37° C. for 2 days, and used for the following procedure. […] The cells prepared in 1) above were cultured at 37° C. for 90 min in a solution containing Fluo-3/AM, a fluorescent dye, as a calcium indicator so that the fluorescent dye was permeated into the cells. […] In order to stimulate calcium influx through a vanilloid receptor, the cells were treated with 1 μM of capsaicin. […] The obtained data were input to the Hill equation represented by the following formula I and the values were analyzed: Intracellular calcium influx= [(fluorescent intensity of experimental group−fluorescent intensity of background)/(fluorescent intensity of positive control−fluorescent intensity of background)]*100 [Formula I] The inhibitory activities were evaluated from the obtained intracellular calcium influx values according to the following criteria.", "units": {"IC50": "nM"}, "values": [{"smiles": "CC(C)(C)c1ccc2nc(-c3cccc4c3OCCN4c3ncccc3Cl)[nH]c2c1", "note": "[Example 6, 8-(6-tert-butyl-1H-benzimidazol-2-yl)-4-(3-chloro-pyridin-2-yl)-3,4-dihydro-2H-benzo[1,4]oxazine]", "IC50": "101 to 500"}, {"smiles": "CC(C)(C)c1ccc2nc(-c3cccc4c3OCCN4c3ncccc3C(F)(F)F)[nH]c2c1", "note": "[Example 7, 8-(6-tert-butyl-1H-benzimidazol-2-yl)-4-(3-trifluoromethyl-pyridin-2-yl)-3,4-dihydro-2H-benzo[1,4]oxazine]", "IC50": "> 1000"}, {"smiles": "CC(C)(C)c1ccc2nc(-c3cccc4c3OCCN4c3ccc(C(F)(F)F)cn3)[nH]c2c1", "note": "[Example 8, 8-(6-tert-butyl-1H-benzimidazol-2-yl)-4-(5-trifluoromethyl-pyridin-2-yl)-3,4-dihydro-2H-benzo[1,4]oxazine]", "IC50": "101 to 500"}, {"smiles": "CC(C)(C)c1ccc2nc(-c3cccc4c3OCCN4c3ncc(C(F)(F)F)cc3Cl)[nH]c2c1", "note": "[Example 9, 8-(6-tert-butyl-1H-benzimidazol-2-yl)-4-(3-chloro-5-trifluoromethyl-pyridin-2-yl)-3,4-dihydro-2H-benzo[1,4]oxazine]", "IC50": "101 to 500"}, {"smiles": "Cc1ccc(N2CCOc3c(-c4nc5cc(C(C)(C)C)ccc5[nH]4)cccc32)nc1", "note": "[Example 10, 8-(5-tert-butyl-1H-benzimidazol-2-yl)-4-(5-methyl-pyridin-2-yl)-3,4-dihydro-2H-benzo[1,4]oxazine]", "IC50": "< 20"}, {"smiles": "CC(C)(C)c1ccc2[nH]c(-c3cccc4c3OCCN4c3ncc(Cl)cc3Cl)nc2c1", "note": "[Example 11, 8-(5-tert-butyl-1H-benzimidazol-2-yl)-4-(3,5-dichloro-pyridin-2-yl)-3,4-dihydro-2H-benzo[1,4]oxazine]", "IC50": "20 to 100"}, {"smiles": "CC(C)(C)c1ccc2[nH]c(-c3cccc4c3OCCN4c3ccccn3)nc2c1", "note": "[Example 12, 8-(5-tert-butyl-1H-benzimidazol-2-yl)-4-pyridin-2-yl-3,4-dihydro-2H-benzo[1,4]oxazine]", "IC50": "101 to 500"}, {"smiles": "CC(C)(C)c1ccc2[nH]c(-c3cccc4c3OCCN4c3ccc(Br)cn3)nc2c1", "note": "[Example 13, 4-(5-bromo-pyridin-2-yl)-8-(5-tert-butyl-1H-benzimidazol-2-yl)-3,4-dihydro-2H-benzo[1,4]oxazine]", "IC50": "20 to 100"}, {"smiles": "CC(C)(C)c1ccc2[nH]c(-c3cccc4c3OCCN4c3ccc(Cl)cn3)nc2c1", "note": "[Example 14, 8-(5-tert-butyl-1H-benzimidazol-2-yl)-4-(5-chloro-pyridin-2-yl)-3,4-dihydro-2H-benzo[1,4]oxazine]", "IC50": "20 to 100"}, {"smiles": "CC(C)(C)c1ccc2[nH]c(-c3cccc4c3OCCN4c3ccc(CO)cn3)nc2c1", "note": "[Example 15, 6-[8-(5-tert-butyl-1H-benzimidazol-2-yl)-2,3-dihydro-benzo[1,4]oxazin-4-yl]-pyridin-3-yl-methanol]", "IC50": "101 to 500"}, {"smiles": "FC(F)(F)c1ccc2nc(-c3cccc4c3OCCN4c3ncccc3Cl)[nH]c2c1", "note": "[Example 16, 4-(3-chloro-pyridin-2-yl)-8-(6-trifluoromethyl-1H-benzimidazol-2-yl)-3,4-dihydro-2H-benzo[1,4]oxazine]", "IC50": "101 to 500"}, {"smiles": "FC(F)(F)c1ccc2nc(-c3cccc4c3OCCN4c3ncccc3C(F)(F)F)[nH]c2c1", "note": "[Example 17, 8-(6-trifluoromethyl-1H-benzimidazol-2-yl)-4-(3-trifluoromethyl-pyridin-2-yl)-3,4-dihydro-2H-benzo[1,4]oxazine]", "IC50": "> 1000"}, {"smiles": "Clc1cccnc1N1CCOc2c(-c3nc4ccc(Br)cc4[nH]3)cccc21", "note": "[Example 21, 8-(6-bromo-1H-benzimidazol-2-yl)-4-(3-chloro-pyridin-2-yl)-3,4-dihydro-2H-benzo[1,4]oxazine]", "IC50": "101 to 500"}, {"smiles": "Clc1ccc2nc(-c3cccc4c3OCCN4c3ncccc3Cl)[nH]c2c1", "note": "[Example 22, 8-(6-chloro-1H-benzimidazol-2-yl)-4-(3-chloro-pyridin-2-yl)-3,4-dihydro-2H-benzo[1,4]oxazine]", "IC50": "> 1000"}, {"smiles": "Cc1ccc(N2CCOc3c(-c4nc5ccc(Br)cc5[nH]4)cccc32)nc1", "note": "[Example 26, 8-(6-bromo-1H-benzimidazol-2-yl)-4-(5-methyl-pyridin-2-yl)-3,4-dihydro-2H-benzo[1,4]oxazine]", "IC50": "101 to 500"}, {"smiles": "Cc1ccc(N2CCOc3c(-c4nc5cc(Cl)ccc5[nH]4)cccc32)nc1", "note": "[Example 27, 8-(5-chloro-1H-benzimidazol-2-yl)-4-(5-methyl-pyridin-2-yl)-3,4-dihydro-2H-benzo[1,4]oxazine]", "IC50": "101 to 500"}, {"smiles": "Cc1ccc(N2CCOc3c(-c4nc5c(Cl)cc(C(F)(F)F)cc5[nH]4)cccc32)nc1", "note": "[Example 29, 8-(4-chloro-6-trifluoromethyl-1H-benzimidazol-2-yl)-4-(5-methyl-pyridin-2-yl)-3,4-dihydro-2H-benzo[1,4]oxazine]", "IC50": "101 to 500"}, {"smiles": "Cc1ccc(N2CCOc3c(-c4nc5c(C(F)(F)F)cc(C(F)(F)F)cc5[nH]4)cccc32)nc1", "note": "[Example 30, 8-(4,6-bis-trifluoromethyl-1H-benzimidazol-2-yl)-4-(5-methyl-pyridin-2-yl)-3,4-dihydro-2H-benzo[1,4]oxazine]", "IC50": "101 to 500"}, {"smiles": "Cc1ccc(N2CCOc3c(-c4nc5c(Br)cc(Br)cc5[nH]4)cccc32)nc1", "note": "[Example 32, 8-(4,6-dibromo-1H-benzimidazol-2-yl)-4-(5-methyl-pyridin-2-yl)-3,4-dihydro-2H-benzo[1,4]oxazine]", "IC50": "101 to 500"}, {"smiles": "Cc1ccc(N2c3cccc(-c4nc5c(Br)cc(OC(F)(F)F)cc5[nH]4)c3OC[C@@H]2CO)nc1", "note": "[Example 54, [(S)-8-(4-bromo-6-trifluoromethoxy-1H-benzimidazol-2-yl)-4-(5-methyl-pyridine-2-yl)-3,4-dihydro-2H-benzo[1,4]oxazin-3-yl]-methanol]", "IC50": "< 20"}, {"smiles": "Cc1ccc(N2c3cccc(-c4nc5c(F)cc(F)cc5[nH]4)c3OC[C@@H]2CO)nc1", "note": "[Example 55, [(S)-8-(4,6-difluoro-1H-benzo[d]imidazol-2-yl)-4-(5-methyl-pyridin-2-yl)-3,4-dihydro-2H-benzo[b][1,4]oxazin-3-yl]-methanol]", "IC50": "< 20"}, {"smiles": "Cc1ccc(N2c3cccc(-c4nc5ccc(C#N)cc5[nH]4)c3OC[C@@H]2CO)nc1", "note": "[Example 56, (S)-2-(3-(hydroxymethyl)-4-(5-methyl-pyridin-2-yl)-3,4-dihydro-2H-benzo[b][1,4]oxazin-8-yl)-1H-benzo[d]imidazol-6-carbonitrile]", "IC50": "101 to 500"}, {"smiles": "C=Cc1ccc(N2c3cccc(-c4nc5ccc(C(C)(C)C)cc5[nH]4)c3OC[C@@H]2CO)nc1", "note": "[Example 57, [(S)-8-(6-tert-butyl-1H-benzimidazol-2-yl)-4-(5-vinyl-pyridin-2-yl)-3,4-dihydro-2H-benzo[1,4]oxazin-3-yl]-methanol]", "IC50": "20 to 100"}, {"smiles": "C=Cc1ccc(N2c3cccc(-c4nc5ccc(C(F)(F)F)cc5[nH]4)c3OC[C@@H]2CO)nc1", "note": "[Example 58, [(S)-8-(6-trifluoromethyl-1H-benzimidazol-2-yl)-4-(5-vinyl-pyridin-2-yl)-3,4-dihydro-2H-benzo[1,4]oxazin-3-yl]-methanol]", "IC50": "20 to 100"}, {"smiles": "C=Cc1ccc(N2c3cccc(-c4nc5ccc(F)cc5[nH]4)c3OC[C@@H]2CO)nc1", "note": "[Example 61, [(S)-8-(6-fluoro-1H-benzimidazol-2-yl)-4-(5-vinyl-pyridin-2-yl)-3,4-dihydro-2H-benzo[1,4]oxazin-3-yl]-methanol]", "IC50": "20 to 100"}, {"smiles": "C=Cc1ccc(N2c3cccc(-c4nc5c(F)cc(Br)cc5[nH]4)c3OC[C@@H]2CO)nc1", "note": "[Example 62, [(S)-8-(6-bromo-4-fluoro-1H-benzimidazol-2-yl)-4-(5-vinyl-pyridin-2-yl)-3,4-dihydro-2H-benzo[1,4]oxazin-3-yl]-methanol]", "IC50": "< 20"}, {"smiles": "C=Cc1ccc(N2c3cccc(-c4nc5c(F)cc(F)cc5[nH]4)c3OC[C@@H]2CO)nc1", "note": "[Example 63, [(S)-8-(4,6-difluoro-1H-benzimidazol-2-yl)-4-(5-vinyl-pyridin-2-yl)-3,4-dihydro-2H-benzo[1,4]oxazin-3-yl]-methanol]", "IC50": "20 to 100"}, {"smiles": "C=Cc1ccc(N2c3cccc(-c4nc5c(Br)cc(C(F)(F)F)cc5[nH]4)c3OC[C@@H]2CO)nc1", "note": "[Example 64, [(S)-8-(4-bromo-6-trifluoromethyl-1H-benzimidazol-2-yl)-4-(5-vinyl-pyridin-2-yl)-3,4-dihydro-2H-benzo[1,4]oxazin-3-yl]-methanol]", "IC50": "< 20"}, {"smiles": "C=Cc1ccc(N2c3cccc(-c4nc5c(Cl)cc(C(F)(F)F)cc5[nH]4)c3OC[C@@H]2CO)nc1", "note": "[Example 65, [(S)-8-(4-chloro-6-trifluoromethyl-1H-benzimidazol-2-yl)-4-(5-vinyl-pyridin-2-yl)-3,4-dihydro-2H-benzo[1,4]oxazin-3-yl]-methanol]", "IC50": "< 20"}, {"smiles": "C=Cc1ccc(N2c3cccc(-c4nc5cc(F)c(Cl)cc5[nH]4)c3OC[C@@H]2CO)nc1", "note": "[Example 70, [(S)-8-(6-chloro-5-fluoro-1H-benzimidazol-2-yl)-4-(5-vinyl-pyridin-2-yl)-3,4-dihydro-2H-benzo[1,4]oxazin-3-yl]-methanol]", "IC50": "20 to 100"}, {"smiles": "C=Cc1ccc(N2c3cccc(-c4nc5c(C(F)(F)F)cc(C(F)(F)F)cc5[nH]4)c3OC[C@@H]2CO)nc1", "note": "[Example 71, ((S)-8-(4,6-bis(trifluoromethyl)-1H-benzo[d]imidazol-2-yl)-4-(5-vinyl-pyridin-2-yl)-3,4-dihydro-2H-benzo[b][1,4]oxazin-3-yl)-methanol]", "IC50": "101 to 500"}]}]}
